Data from BindingDB's records for doi:10.1021/jm049787k (Pharmaceutical Research Institute, 2004).

Target: Corticotropin-releasing factor receptor 2 (Sus scrofa)
Experiment: Inhibition of [125I]- sauvagine binding to corticotropin releasing factor receptor 2 of porcine choroid plexus

IC50: > 10 µM
Compound: CCc1nc2c(n1C(C1CC1)C1CC1)C(=O)N(C)CN2c1ccc(Cl)cc1Cl [3-(2,4-Dichloro-phenyl)-7-dicyclopropylmethyl-8-ethyl-1-methyl-1,2,3,7-tetrahydro-purin-6-one]
